# Experiments:
# [1] = system: carrageenan-induced paw inflammation; assay: Rat carrageenan-induced paw inflammation (paw edema) assay; assay type: in vivo, Male Sprague Dawley rats; conditions: oral, one hour prior to carrageenan, paw weight difference four hours after carrageenan
# Procedure: The in vivo efficacy if NSAID cochleates was tested in a rat carrageenan-induced paw inflammation assay.
# Two types of ibuprofen-containing cochleates were prepared, crystal cochleates and geode cochleates. The cochleates were prepared with using soy phosphatidylserine as a negative phospholipid. To prepare the ibuprofen geode cochleate, the soy phosphatidylserine was combined with castor oil and ibuprofen and mixed to form a stable emulsion comprising a mixture of liposomes and lipid monolayers comprising the phosphatidylserine surrounding a hydrophobic domain (castor oil), with the ibuprofen dispersed within the castor oil. […] Crystal and geode cochleates containing 50, 10, 2, 0.4, or 0.1 mg/kg of ibuprofen were prepared. Male Sprague Dawley rats were treated orally (one hour prior to right hind footpad injection of carrageenan) with vehicle, a commercial preparation of ibuprofen or ibuprofen formulated in either crystal or geode cochleates and were evaluated for effects of treatment on inflammatory edema. Animals were sacrificed five hours after dosing with test articles (four hours after carrageenan injection). Efficacy evaluation was based on weight difference due to inflammation-induced swelling in injected (right) vs. uninjected (left) paws. In addition, gastric mucosa were evaluated for differences in incidence and severity of mucosal congestion and erosions.
# gastric mucosa = assay: Evaluation of gastric mucosa for lesions/erosions in rats after oral dosing; assay type: in vivo, Male Sprague Dawley rats
# Procedure: Male Sprague Dawley rats were treated orally (one hour prior to right hind footpad injection of carrageenan) with vehicle, a commercial preparation of ibuprofen or ibuprofen formulated in either crystal or geode cochleates and were evaluated for effects of treatment on inflammatory edema. Animals were sacrificed five hours after dosing with test articles (four hours after carrageenan injection). Efficacy evaluation was based on weight difference due to inflammation-induced swelling in injected (right) vs. uninjected (left) paws. In addition, gastric mucosa were evaluated for differences in incidence and severity of mucosal congestion and erosions.
# [2] = Solubility of ibuprofen in oils; assay type: physicochemical
# [3] = rats, ibuprofen at 50 mg/kg oral
smiles,measurement,setting,value
"CC(C)Cc1ccc(C(C)C(=O)O)cc1 (stereo not drawn) [Commercial ibuprofen, ibuprofen]",ED50,[1],30 mg/kg
same,rats with gastric lesions (incidence),"gastric mucosa; 10 mg/kg, oral",1 of 10
same,rats with gastric lesions (incidence),"gastric mucosa; 10 mg/kg, oral, listed as commercial preparation of ibuprofen",Some rats
same,number of gastric lesions and total stomach lesion length (in words),"gastric mucosa; 50 mg/kg, oral",significantly increased numbers of gastric lesions and increased total stomach lesion length
same,Average Size of Lesion,gastric mucosa; [3],7.2 ± 1.9
same,Number of Lesions per Animal,gastric mucosa; [3],4.1 ± 0.8
same,Number of Animals with Lesions,"gastric mucosa; rats, ibuprofen at 50 mg/kg oral, five hours after dosing, groups of 10",9
same,rats with gastric lesions (incidence),"gastric mucosa; single-dose 50 mg/kg (highest dose), oral",9 of 10
same,solubility in castor oil compared with other oils,[2],substantially more soluble in castor oil than other oils

# Source: patent publication US20180185308A1, “COMPOSITIONS AND METHODS FOR TREATING INFLAMMATORY DISEASE OR CONDITIONS” (Matinas BioPharma Nanotechnologies, Inc., priority 2015, published 2018)
